Test results as given in publication PMC4744035, “In Vivo, In Vitro, and In Silico Characterization of Peptoids as Antimicrobial Agents” (PLoS ONE, 2016).
Values after ≈ are worked out from the molar mass of the structure shown. Like-named read-outs stand apart in the source and are kept apart here. Numbered stars: 1 amine (or outer) side, 2 acyl side, 3 side chain; on linkers, the order of the positions; unused ones are H or OH. Square brackets hold non-standard residues; d marks the D form. Peptide text beside a SMILES is read from it. X2 = C[C@@H](c1cccc2ccccc12)N(CC(=O)[*:2])[*:1]; Nspe = C[C@H](NCC(=O)O)c1ccccc1; Nlys = NCCCCNCC(=O)O

Assays:
[1] = tested on: E. faecalis ATCC29212; experiment: microbe, parasite or virus in culture; settings: ATCC29212
Method: (§1) The MICs of test agents were measured using a modified broth micro-dilution method in Difco Mueller Hinton medium, on a panel of bacterial pathogens that were both susceptible and resistant to common antibiotics (S1 File). Briefly, serial dilutions were performed in 0.01% acetic acid containing 0.2% bovine serum albumin at 10-fold the desired final concentration. Ten μL of the 10-fold concentrated test reagents were added to each well of a 96-well polypropylene microtitre plate containing 90 μL of Mueller Hinton media per well. Bacteria were added to the plate from an overnight culture at a final concentration of 2–7 x 10^5 CFU/mL and incubated overnight at 37°C. The MIC is defined as the concentration at which no growth was observed.
(§2) Screening of peptoid antimicrobial activity against a panel of multidrug resistant superbugs was done according to the protocol described in the manuscript. The bacterial strains used in this panel included; P. aeruginosa PAO1 strain H103 [1], P. maltophilia ATCC#13637, S. aureus ATCC#25923 [1], E. faecalis ATCC#29212 [2], and E. cloacae 218R, constitutively expressing Class C chromosomal β-lactamase, were from the Hancock lab strains collection. An MRSA clinical isolate was kindly provided by Anthony Chow (Vancouver General Hospital, Vancouver, Canada). Two Klebsiella pneumoniae and two E. coli clinical isolates expressing extended spectrum β-lactamases (ESBL) were kindly provided by George Zhanel (Health Sciences Centre, Winnipeg, Canada). Vancomycin-resistant clinical isolates of Enterococcus faecalis and E. faecium were obtained from Ana M. Paccagnella (BC Centre for Disease Control, Vancouver, Canada). Three clinical isolates (#9, #198 and #213) of multi-drug resistant P. aeruginosa, were kindly provided by Carlos Kiffer (University of São Paulo, Brazil). […] Three P. aeruginosa clinical isolates of the Liverpool epidemic strain (LES) (H1027, H1030 and LES400) were all kindly provided by Craig Winstanley (University of Liverpool, UK). […] All tested bacterial strains were categorized as biohazard level 2 pathogens.

[2] = tested on: E. coli 63103 (ESBL); experiment: microbe, parasite or virus in culture
Method: as §1, §2

[3] = tested on: S. aureus C623 (MRSA); experiment: microbe, parasite or virus in culture
Method: as §1, §2

[4] = tested on: P. aeruginosa H103 (wild type); experiment: microbe, parasite or virus in culture
Method: as §1, §2

[5] = tested on: P. aeruginosa 213 (MDR); experiment: microbe, parasite or virus in culture
Method: as §1, §2

[6] = tested on: S. aureus ATCC25923; experiment: microbe, parasite or virus in culture; settings: ATCC25923
Method: as §1, §2

[7] = tested on: E. faecium T62764 (VRE); experiment: microbe, parasite or virus in culture
Method: as §1, §2

[8] = tested on: E. faecium mic80 (VRE); experiment: microbe, parasite or virus in culture
Method: as §1, §2

[9] = tested on: K. pneumonia 63575 (ESBL); experiment: microbe, parasite or virus in culture
Method: as §1, §2

[10] = tested on: E. coli 64771 (ESBL); experiment: microbe, parasite or virus in culture
Method: as §1, §2

[11] = tested on: P. aeruginosa H1027 (MDR); experiment: microbe, parasite or virus in culture
Method: as §1, §2

[12] = tested on: E. cloacae 218R Class C β-lactamase; experiment: microbe, parasite or virus in culture
Method: as §1, §2

[13] = tested on: E. faecalis W61950 (VRE); experiment: microbe, parasite or virus in culture
Method: as §1, §2

[14] = tested on: E. faecalis F43559 (VRE); experiment: microbe, parasite or virus in culture
Method: as §1, §2

[15] = tested on: P. aeruginosa 9 (MDR); experiment: microbe, parasite or virus in culture
Method: as §1, §2

[16] = tested on: K. pneumonia 61962 (ESBL); experiment: microbe, parasite or virus in culture
Method: as §1, §2

[17] = tested on: P. aeruginosa LES400 (MDR); experiment: microbe, parasite or virus in culture
Method: as §1, §2

[18] = tested on: P. aeruginosa 198 (MDR); experiment: microbe, parasite or virus in culture
Method: as §1, §2

[19] = tested on: P. maltophilia ATCC13637; experiment: microbe, parasite or virus in culture; settings: ATCC13637
Method: as §1, §2

[20] = tested on: P. aeruginosa H1030 (MDR); experiment: microbe, parasite or virus in culture; settings: P. aeruginosa H1030 (MDR)
Method: as §1, §2

[21] = tested on: E. coli ATCC 35218; type: cell-based
Method: MICs against B. subtilis and E. coli screening bacterial strains were determined using serial dilution in 96-well microtiter plates in accordance with CLSI M7-A6 protocols. Briefly, peptoid solution in cation-adjusted Mueller-Hinton broth was prepared by 2:1 serial dilution with a total volume of 50 µL per well. In experimental wells, 50 µL of bacterial inoculums (1 x 10^6 CFU/mL) were added to the peptoid solutions. Positive controls consisted of 50 µL inoculums added to 50 µL cation-adjusted Mueller-Hinton broth containing no peptoid, while negative controls contained only cation-adjusted Mueller-Hinton broth. […] Experiments were reproducible among three independent replicates, each consisting of two parallel trials.

[22] = tested on: erythrocytes; experiment: Hemolytic activity (HD10/HD50); type: cell-based
Description: Table 1 Characteristics of antimicrobial peptoids, screened for activity against B. subtilis and E. coli bacterial strains. | column: HD10 / HD50

Compound	MIC [1]	MIC ([2]; 63103 (ESBL))	MIC ([3]; C623)	MIC ([4]; H103 (wild type))	MIC ([5]; 213 (MDR))	MIC [6]	MIC ([7]; T62764 (VRE))	MIC ([8]; mic80 (VRE))	MIC [9]	MIC ([10]; 64771 (ESBL))	MIC ([11]; H1027 (MDR))	MIC ([12]; 218R Class C β-lactamase)	MIC [20]	MIC ([13]; W61950 (VRE))	MIC ([14]; F43559 (VRE))	MIC ([15]; 9 (MDR))	MIC [16]	MIC ([17]; LES400 (MDR))	MIC ([18]; 198 (MDR))	MIC [19]	also measured
C[C@@H](O)[C@H]1C(=O)N2C(C(=O)O)=C(SCCN=CN)C[C@H]12 [Imipenem, reference compound]																					MIC ([1]; Enterococcus faecalis): 0.5 µg/mL (≈ 1.67 µM); MIC ([2]; Escherichia coli): 0.1 µg/mL (≈ 0.334 µM); MIC ([3]; Staphylococcus aureus, MRSA): 0.1 µg/mL (≈ 0.334 µM); MIC ([4]; Pseudomonas aeruginosa): 2 µg/mL (≈ 6.68 µM); MIC ([5]; Pseudomonas aeruginosa): 128 µg/mL (≈ 428 µM); MIC ([6]; Staphylococcus aureus): 0.1 µg/mL (≈ 0.334 µM); MIC ([7]; Enterococcus faecium, VRE): > 128 µg/mL; MIC ([8]; Enterococcus faecium, VRE): 128 µg/mL (≈ 428 µM); MIC ([9]; Klebsiella pneumoniae): 0.1 µg/mL (≈ 0.334 µM); MIC ([10]; Escherichia coli): 0.1 µg/mL (≈ 0.334 µM); MIC ([11]; Pseudomonas aeruginosa): 8 µg/mL (≈ 26.7 µM); MIC ([12]; Enterobacter cloacae): 0.1 µg/mL (≈ 0.334 µM); MIC ([13]; Enterococcus faecalis, VRE): 2 µg/mL (≈ 6.68 µM); MIC ([14]; Enterococcus faecalis, VRE): 2 µg/mL (≈ 6.68 µM); MIC ([15]; Pseudomonas aeruginosa): 128 µg/mL (≈ 428 µM); MIC ([16]; Klebsiella pneumoniae): 0.1 µg/mL (≈ 0.334 µM); MIC ([17]; Pseudomonas aeruginosa): 1 µg/mL (≈ 3.34 µM); MIC ([18]; Pseudomonas aeruginosa): 32 µg/mL (≈ 107 µM); MIC ([19]; Stenotrophomonas maltophilia): 128 µg/mL (≈ 428 µM)
C[C@@H](c1ccccc1)N(CC(=O)N(CCCCN)CC(=O)N(CC(=O)N(CC(=O)N(CCCCN)CC(=O)N(CC(=O)N(CC(=O)N(CCCCN)CC(=O)N(CC(=O)N(CC(N)=O)[C@@H](C)c1cccc2ccccc12)[C@@H](C)c1ccccc1)[C@@H](C)c1ccccc1)[C@@H](C)c1ccccc1)[C@@H](C)c1cccc2ccccc12)[C@@H](C)c1ccccc1)C(=O)CN(C(=O)CNCCCCN)[C@@H](C)c1ccccc1 [1-Nsna6,12, H-(NLys-Nspe-Nspe-NLys-Nspe-Nsna)2-NH2] (H-[Nlys][Nspe][Nspe][Nlys][Nspe][X2][Nlys][Nspe][Nspe][Nlys][Nspe][X2]-NH2)	4 µg/mL (≈ 2.08 µM)	16 µg/mL (≈ 8.34 µM)	4 µg/mL (≈ 2.08 µM)	4 µg/mL (≈ 2.08 µM)	8 µg/mL (≈ 4.17 µM)	4 µg/mL (≈ 2.08 µM)	2 µg/mL (≈ 1.04 µM)	4 µg/mL (≈ 2.08 µM)	32 µg/mL (≈ 16.7 µM)	8 µg/mL (≈ 4.17 µM)	2 µg/mL (≈ 1.04 µM)	32 µg/mL (≈ 16.7 µM)	32 µg/mL (≈ 16.7 µM)	16 µg/mL (≈ 8.34 µM)	8 µg/mL (≈ 4.17 µM)	128 µg/mL (≈ 66.7 µM)	64 µg/mL (≈ 33.3 µM)	8 µg/mL (≈ 4.17 µM)	16 µg/mL (≈ 8.34 µM)	1 µg/mL (≈ 0.521 µM)	
C[C@@H](c1ccccc1)N(CC(N)=O)C(=O)CN(C(=O)CN(CCCCN)C(=O)CN(C(=O)CN(C(=O)CN(CCCCN)C(=O)CN(C(=O)CN(C(=O)CN(CCCCN)C(=O)[C@@H]1CCCN1C(=O)CN(C(=O)CNCCCCN)[C@@H](C)c1ccccc1)[C@@H](C)c1ccccc1)[C@@H](C)c1ccccc1)[C@@H](C)c1ccccc1)[C@@H](C)c1ccccc1)[C@@H](C)c1ccccc1 [Peptoid 1-Pro3, H-NLys-Nspe-L-Pro-(NLys-Nspe-Nspe)3-NH2] (H-[Nlys][Nspe]P[Nlys][Nspe][Nspe][Nlys][Nspe][Nspe][Nlys][Nspe][Nspe]-NH2)	8 µg/mL (≈ 4.56 µM)	16 µg/mL (≈ 9.12 µM)	4 µg/mL (≈ 2.28 µM)	8 µg/mL (≈ 4.56 µM)	8 µg/mL (≈ 4.56 µM)	4 µg/mL (≈ 2.28 µM)	2 µg/mL (≈ 1.14 µM)	4 µg/mL (≈ 2.28 µM)	32 µg/mL (≈ 18.2 µM)	8 µg/mL (≈ 4.56 µM)	2 µg/mL (≈ 1.14 µM)	16 µg/mL (≈ 9.12 µM)	16 µg/mL (≈ 9.12 µM)	16 µg/mL (≈ 9.12 µM)	8 µg/mL (≈ 4.56 µM)	128 µg/mL (≈ 72.9 µM)	32 µg/mL (≈ 18.2 µM)	8 µg/mL (≈ 4.56 µM)	16 µg/mL (≈ 9.12 µM)	1 µg/mL (≈ 0.57 µM)	MIC E. coli [21]: 12.5 µM (≈ 21.9 µg/mL); HD10 (hemolytic activity) [22]: 74; HD50 (hemolytic activity) [22]: > 200
